Results from US9216183B2, “Topical treatment for chemotherapy induced eyelash loss or hypotrichosis using prostamide F2 alpha agonists” (ALLERGAN, INC., priority 2002, dated 2015).
“Also recorded” adds a separate entry of the source.

Assays:
Format in all cases: in vivo, human
[1] = system: eyelashes of subjects with idiopathic hypotrichosis; experiment: Digital image analysis of upper eyelash length, thickness, darkness, idiopathic hypotrichosis; conditions: for Upper eyelash length, mean % change from baseline / Upper eyelash length, mean value / Upper eyelash thickness, mean % change from baseline / Upper eyelash thickness, mean value / Upper eyelash darkness, mean % change from baseline / Upper eyelash darkness, mean value: Bim/Veh group (n = 60); for Upper eyelash darkness, mean % change from baseline / Upper eyelash darkness, mean percent change from baseline: negative = darker; for Upper eyelash darkness, mean value: scale 0 black to 255 white
Procedure: Secondary efficacy measures were based on digital image analysis (DIA) of eyelash characteristics: upper eyelash length (millimeters [mm]), thickness (mm^2), and darkness (intensity units). For darkness, a negative value in terms of change from baseline indicated darker eyelashes. Upper eyelash characteristics of length, thickness, and darkness were determined by a validated DIA method. The reliability and reproducibility of DIA have been verified within the acceptance criteria of 0.05% or less of mean coefficient of variance. The principal variables for the secondary efficacy assessments are: change from baseline in upper eyelash length (mm), average progressive eyelash thickness (mm^2), and eyelash darkness (intensity units) at months 4, 6, 10, and 12 or early termination. Descriptive statistics of the raw value at baseline and percent change from baseline at follow-up visits were summarized by treatment group for each principal measure of the 3 secondary variables of eyelash characteristics. Between-group comparisons were performed using a van Elteren test stratified by hypotrichosis etiology.

[2] = Safety (adverse events, IOP), idiopathic hypotrichosis subpopulation
Procedure: (§1) Safety measures included adverse events (AEs), ophthalmic examination (ophthalmoscopy [dilated], biomicroscopy, IOP, iris color assessment, and BCVA). AEs were monitored throughout the study by the investigator.
(§2) The 12-month data were the primary focus of the safety evaluation. Safety data were summarized with descriptive statistics (n, or frequency distributions [counts or percentages]). Biomicroscopic examinations and assessments of iris color, IOP, and BCVA were performed for each subject at screening/baseline and months 1, 2, 4, 6, 8, and 12 (or early termination prior to month 12); ophthalmoscopic examinations (dilated) were performed at screening/baseline and months 6 and 12 (or early termination prior to month 12). Two IOP measurements were taken for each eye at each visit; a third measurement was taken if the difference between the first 2 measurements was more than 2 mm Hg. The average or median IOP was determined in the event that 2 or 3 measurements were made, respectively. The IOP value analyzed at each visit was the average IOP of the subject's 2 eyes. Change and percent change from baseline in IOP were summarized by descriptive statistics. Between-group comparison will be performed using the 1-way analysis of variance.

[3] = Safety (adverse events, IOP), chemotherapy-induced hypotrichosis subpopulation
Procedure: as §1, §2

[4] = Safety, overall study population (adverse events, ophthalmic examination, IOP, iris color)
Procedure: as §1, §2
Iris color assessments were performed using a 10-category subjective classification: blue, blue-gray, blue/gray-brown, gray, green, green-brown, hazel, brown, dark brown, and other.

[5] = Month 10 (vehicle since month 6)
[6] = Month 12 (vehicle since month 6)
[7] = Month 4, all bimatoprost TP1 (n = 179)
[8] = Month 4, all bimatoprost TP1 (n = 179), listed as Bimatoprost
[9] = Month 6, all bimatoprost TP1 (n = 179)
[10] = Month 6, group treated up to 12 months with bimatoprost
[11] = Month 12, group treated up to 12 months with bimatoprost
[12] = chemotherapy-induced, 0 to 6 Months (N = 96)
[13] = chemotherapy-induced, 0 to 12 Months (N = 96)
[14] = chemotherapy-induced, 6 to 12 Months (N = 89)
[15] = postchemotherapy, first 6-month study period
[16] = postchemotherapy, first 6 months, N = 96
[17] = overall population during bimatoprost treatment periods
[18] = subjects treated with bimatoprost, 10-category scale

## CCNC(=O)CCC/C=C\C[C@@H]1[C@@H](/C=C/[C@@H](O)CCc2ccccc2)[C@H](O)C[C@@H]1O [Bim 0.03%, bimatoprost]
[1]; Month 4 (on bimatoprost)
  Upper eyelash length, mean % change from baseline: 21.01%
  Upper eyelash length, mean value: 6.8 mm
  Upper eyelash thickness, mean % change from baseline: 73.7%
  Upper eyelash thickness, mean value: 1.2 mm^2
  Upper eyelash darkness, mean % change from baseline: −16.01%
  Upper eyelash darkness, mean value: 126.3 intensity units
[1]; Month 6 (on bimatoprost)
  Upper eyelash length, mean % change from baseline: 25.70%
  Upper eyelash length, mean value: 7.1 mm
  Upper eyelash thickness, mean % change from baseline: 79.9%
  Upper eyelash thickness, mean value: 1.2 mm^2
  Upper eyelash darkness, mean % change from baseline: −14.89%
  Upper eyelash darkness, mean value: 128.0 intensity units
[1]; [5]
  Upper eyelash length, mean % change from baseline: 6.46%
  Upper eyelash length, mean value: 6.0 mm
  Upper eyelash thickness, mean % change from baseline: 13.0%
  Upper eyelash thickness, mean value: 0.8 mm^2
  Upper eyelash darkness, mean % change from baseline: −3.97%
  Upper eyelash darkness, mean value: 143.7 intensity units
[1]; [6]
  Upper eyelash length, mean % change from baseline: 4.62%
  Upper eyelash length, mean value: 5.9 mm
  Upper eyelash thickness, mean % change from baseline: 15.9%
  Upper eyelash thickness, mean value: 0.9 mm^2
  Upper eyelash darkness, mean % change from baseline: −4.29%
  Upper eyelash darkness, mean value: 143.6 intensity units
[1]; [7]
  Upper eyelash length, mean percent change from baseline: 22.90%
  Upper eyelash thickness, mean percent change from baseline: 95.90%
  Upper eyelash darkness, mean percent change from baseline: −15.70%
[1]; [8]
  Upper eyelash length, mean percent change from baseline: 22.9 (177) %
  Upper eyelash thickness, mean percent change from baseline: 95.9 (150) %
  Upper eyelash darkness, mean percent change from baseline: −15.7 (150) %
[1]; [9]
  Upper eyelash length, mean percent change from baseline: 26.0 (177) %
  Upper eyelash thickness, mean percent change from baseline: 91.4 (150) %
  Upper eyelash darkness, mean percent change from baseline: −14.1 (150) %
[1]; [10]
  Eyelash length, mean percent increase from baseline: 26.17%
  Eyelash length, median percent increase from baseline: 22.4%
  Increase in mean eyelash length from baseline: 1.44 mm
[1]; [11]
  Eyelash length, mean percent increase from baseline: 25.86%
  Eyelash length, median percent increase from baseline: 22.63%
[2]; 0 to 6 Months (N = 118)
  Conjunctival hyperaemia: 5.9%
  Erythema of eyelid: 1.7%
  Eye pruritus: 0.8%
  Eyelids pruritus: 5.1%
  Punctate keratitis: 2.5%
  Skin hyperpigmentation: 0.0%
[2]; 0 to 12 Months (N = 118)
  Conjunctival hyperaemia: 8.5%
  Erythema of eyelid: 5.1%
  Eye pruritus: 0.8%
  Eyelids pruritus: 5.9%
  Punctate keratitis: 2.5%
  Skin hyperpigmentation: 1.7%
[2]; 6 to 12 Months (N = 106)
  Conjunctival hyperaemia: 3.8%
  Erythema of eyelid: 4.7%
  Eye pruritus: 0.0%
  Eyelids pruritus: 0.9%
  Punctate keratitis: 0.0%
  Skin hyperpigmentation: 1.9%
[2]; month 4, IOP measured in mm Hg
  Mean change from baseline in IOP: −1.17
[3]; [12]
  Conjunctival hyperaemia: 15.6%
  Erythema of eyelid: 1.0%
  Eye pruritus: 5.2%
  Eyelids pruritus: 3.1%
  Punctate keratitis: 8.3%
  Skin hyperpigmentation: 3.1%
[3]; [13]
  Conjunctival hyperaemia: 16.7%
  Erythema of eyelid: 3.1%
  Eye pruritus: 6.3%
  Eyelids pruritus: 3.1%
  Punctate keratitis: 9.4%
  Skin hyperpigmentation: 5.2%
[3]; chemotherapy-induced, 2-month visit, IOP measured in mm Hg
  Mean change from baseline in IOP: −1.22
[3]; [14]
  Conjunctival hyperaemia: 1.1%
  Erythema of eyelid: 2.2%
  Eye pruritus: 1.1%
  Eyelids pruritus: 1.1%
  Punctate keratitis: 1.1%
  Skin hyperpigmentation: 2.2%
[3]; [15]
  Subjects reporting at least 1 adverse event: 57.3%
  Subjects reporting treatment-related adverse events: 27.1%
[3]; postchemotherapy, first 6 months
  Treatment-related adverse events reported as severe: None
[3]; [16]
  Treatment-related conjunctival hyperaemia: 12 subjects
  Treatment-related eye pruritus: 3 subjects
  Treatment-related eyelid irritation: 2 subjects
  Treatment-related eyelids pruritus: 3 subjects
  Treatment-related punctate keratitis: 7 subjects
  Treatment-related skin hyperpigmentation: 3 subjects
[4]; about 2 months after discontinuation of bimatoprost and initiation of vehicle, mild
  1-category change in iris hyperpigmentation reported as an AE: 1 subject
[4]; any time point, any group
  Greatest magnitude of mean change from baseline IOP: less than 2 mm Hg
[4]; bimatoprost 0.03% followed by vehicle (6-month treatment period)
  Subjects with biomicroscopy and ophthalmoscopy findings of at least a 2-severity grade increase from baseline: 5.0%
[4]; bimatoprost during both treatment periods (12-month treatment period)
  Subjects with biomicroscopy and ophthalmoscopy findings of at least a 2-severity grade increase from baseline: 4.2%
[4]; both subpopulations, 12-month study
  Drug-related serious adverse events: No drug-related serious adverse events were reported; also recorded: no serious AEs attributed to study treatment
[4]; [17]
  Conjunctival hyperaemia: 12.1%
  Erythema: 4.2%
  Eyelid pruritus: 4.7%
  Punctuate keratitis: 5.6%
[4]; [18]
  1- to 2-category iris color change from dark to light: 6 subjects
  1-category iris color change from light to dark: 5 subjects
[4]; vehicle followed by bimatoprost (6-month treatment period)
  Subjects with biomicroscopy and ophthalmoscopy findings of at least a 2-severity grade increase from baseline: 2.4%
[4]; whole study (study treatment), all in idiopathic subpopulation
  Subjects discontinued due to a treatment-related AE: 2.8%
[4]; whole study, mild/moderate
  Enophthalmos leading to treatment discontinuation: 1 subject
